In data set [1] the test system is breast cancer cells that overexpress HER2. Nature of the data set: HER2 expression and Akt activation in breast cancer cells. The class given is cell-based.
Data set [2] has as its system MCF-7 human breast cancer cells. Nature of the data set: In vitro cytotoxicity, MTT assay. The class given is cell-based. Conditions: n = 4. The method, then: Cytotoxicity of DOX-loaded cl-micelles was assessed in MCF-7 cells by a standard MTT assay as described (Kim et al. (2009) J. Control Release, 138:197-204). Briefly, cells were seeded in a 96-well microtiter plates with 5,000 cells per well and allowed to adhere for 24 hours prior to the assay. Cells were exposed to various doses (0-50 μg/ml on DOX basis) of DOX alone, polymer micelles alone, and DOX-loaded cl-micelles for 24 hours at 37° C., followed by washing with PBS, and maintaining in DMEM medium with 10% FBS for additional 72 hours. 25 μl of MTT indicator dye (5 mg/ml) was added to each well and the cells were incubated for 2 hours at 37° C. in the dark. 100 μl of 50% DMF-20% SDS solution was added to each well and kept overnight at 37° C. Absorption was measured at 570 nm in a microplate reader (SpectraMax® M5, Molecular Devices Co., USA) using wells without cells as blanks. […]
In general terms: Tetrazolium dyes change colour on reduction, which living cells bring about.

For data set [3] the following is noted: carboxylic groups; cited from earlier work.

Molecules are shown by their SMILES.

The values that follow come from patent US9498533B2, “Drug delivery compositions and methods” (Board of Regents of the University of Nebraska, priority 2011, dated 2016).

For the compound `C=CCNC1=C2C[C@@H](C)C[C@H](OC)[C@H](O)[C@@H](C)/C=C(\C)[C@H](OC(N)=O)[C@@H](OC)/C=C\C=C(/C)C(=O)NC(=CC1=O)C2=O` [17-AAG, 17-N-allylamino-17-demethoxygeldanamycin], in data set [1], the Akt activation entry is “inhibited Ala activation” and the HER2 expression entry is “downregulation of HER2 expression”. Turning to `COc1cccc2c1C(=O)c1c(O)c3c(c(O)c1C2=O)C[C@@](O)(C(=O)CO)C[C@@H]3O[C@H]1C[C@H](N)[C@H](O)[C@H](C)O1.Cl` [Free DOX, Doxorubicin hydrochloride], the “IC50 (DOX equivalents)” value in data set [2] (MCF-7, 6 hours incubation) amounted to 0.283 ± 0.049 µg/mL; in data set [2] (MCF-7, 24 hours incubation) it was 0.046 ± 0.021 µg/mL. Regarding `N[C@@H](CCC(=O)O)C(=O)O` [glutamic acid], the pKa result in data set [3] is recorded as “ca. 4.4”.
